The values that follow are results of earlier work, collected in US5559121A, “Rapamycin formulations for oral administration” (American Home Products Corporation, priority 1995, dated 1996).

For series [1] the following is noted: FASEB 3, 3411 (1989) and others.
The subject of series [2] is experimental allergic encephalomyelitis. The note with it: Martel 1977.
The conditions of series [3]: in vivo.
Series [4] concerns adjuvant arthritis. The note with it: Martel 1977.
Series [5] has as its system IgE-like antibodies. The note with it: Martel 1977.
Series [6] relates to Candida albicans.
Series [7] concerns insulin dependent diabetes mellitus. The note with it: Fifth Int. Conf. Inflamm. Res. Assoc. 121 (1990).
The test system of series [8] is thymocyte proliferation. The settings on record: in vitro.
Series [9] deals with tumor. The settings on record: U.S. Pat. No. 4,885,171 (alone); U.S. Pat. No. 4,401,653 (with picibanil).
For series [10], the system named is smooth muscle cell proliferation and intimal thickening. The note with it: Morris 1992.
In series [11] the test system is Microsporum gypseum.
Series [12] concerns allograft rejection. The settings on record: Calne 1989; Morris and Meiser 1989.

For the compound `C=CC[C@@H]1/C=C(\C)C[C@H](C)C[C@H](OC)[C@H]2O[C@@](O)(C(=O)C(=O)N3CCCC[C@H]3C(=O)O[C@H](/C(C)=C/[C@@H]3CC[C@@H](O)[C@H](OC)C3)[C@H](C)[C@@H](O)CC1=O)[C@H](C)C[C@@H]2OC` [FK-506], the immunosuppressive effects result in series [1] is given as “effective as immunosuppressive agents”.
As for `CO[C@H]1C[C@@H]2CC[C@@H](C)[C@@](O)(O2)C(=O)C(=O)N2CCCC[C@H]2C(=O)O[C@H]([C@H](C)C[C@@H]2CC[C@@H](O)[C@H](OC)C2)CC(=O)[C@H](C)/C=C(\C)[C@@H](O)[C@@H](OC)C(=O)[C@H](C)C[C@H](C)/C=C/C=C/C=C/1C` [Rapamycin, rapamycin], the “effectiveness in experimental allergic encephalomyelitis model” value in series [2] is “effective”. Moreover, the “immunosuppressive, antifungal and antiinflammatory activity” value in series [3] was “immunosuppressive, antifungal and antiinflammatory activity in vivo”. For the same compound, the “effectiveness in adjuvant arthritis model” value in [4] was “effective”. Besides, in [5], the “inhibition of the formation of IgE-like antibodies” value is recorded as “effectively inhibited the formation of IgE-like antibodies”. Further, the “effect on growth of Candida albicans” value in series [6] was “adversely affects the growth”. Besides, the “preventing or treating insulin dependent diabetes mellitus” value in [7] is on record as “useful in preventing or treating”. In addition, the “inhibition of thymocyte proliferation” value in series [8] is “inhibit thymocyte proliferation in vitro”. Further, in [9], the antitumor activity result is listed as “antitumor activity”. For the same compound, the “preventing or treating smooth muscle cell proliferation and intimal thickening following vascular injury” value in [10] is recorded as “useful in preventing or treating”. In addition, the “effect on growth of Microsporum gypseum” value in series [11] was “adversely affects the growth”. For the same compound, the “inhibiting rejection in vivo in allograft transplantation” value in series [12] is given as “effectiveness of rapamycin in inhibiting rejection in vivo”. Besides, in series [1], the immunosuppressive effects entry is given as “immunosuppressive effects”.
